What was measured:
[1] = target: T1, PKCγ (Homo sapiens, UniProt P05129); experiment: PKC isozyme specificity: PKCγ; format: biochemical; conditions: 50-100 μM; data not shown
T1 construct: purchased Calbiochem
Method: (§1) Protein Kinase C Assay. Rat hippocampal cells were cultured and scraped in 0.2 ml homogenization buffer (20 mM Tris-HCl, pH 7.4, 50 mM NaF, 1 μg/ml leupeptin, and 0.1 mM PMSF) and homogenized by sonication in a Marsonix micro-probe sonicator (5 sec, 10 W). To measure PKC, 10 μl of cell homogenate or purified PKC isozyme (purchased from Calbiochem) was incubated for 15 min at 37° C. in the presence of 10 μM histones, 4.89 mM CaCl2, 1.2 μg/μl phosphatidyl-L-serine, 0.18 μg/μl 1,2-dioctanoyl-sn-glycerol, 10 mM MgCl2, 20 mM HEPES (pH 7.4), 0.8 mM EDTA, 4 mM EGTA, 4% glycerol, 8 μg/ml aprotinin, 8 μg/ml leupeptin, and 2 mM benzamidine. 0.5 μCi [γ-32P]ATP was added and 32P-phosphoprotein formation was measured by adsorption onto phosphocellulose as described previously. Nelson and Alkon, J. Neurochemistry. 1995; 65: 2350-57. For measurements of activation by BR-101 (DCP-LA) and similar compounds, PKC activity was measured in the absence of diacylglycerol and phosphatidylserine, as described by Kanno et al., and PKC δ, ε, η, and were measured in the absence of added EGTA and CaCl2, as described by Kanno et al., J. Lipid Res. 2006; 47: 1146-50. […]
(§2) To determine their PKC isozyme specificity, the new compounds were preincubated with purified PKC for five minutes and the PKC activity was measured radiometrically.

[2] = tested on: Aß; experiment: Aß production in N2a neuroblastoma cells transfected with human APPSwe/PS1D (Aß 1-42 ELISA); format: cell-based, mouse
Method: Aß Measurement and Cell Viability Assay. Aß was measured using an Aß 1-42 human fluorimetric ELISA kit (Invitrogen) according to the manufacturer's instructions. Results were measured in a Biotek Synergy HT microplate reader. AlamarBlue and CyQuant NF (Invitrogen) according to the manufacturer's instructions.
To measure the effects of PKC activation on Aß production, we used mouse neuro2a (N2a) neuroblastoma cells transfected with human APPSwe/PS1D, which produce large quantities of Aβ. Petanceska et al., J. Neurochem. 1996; 74: 1878-84. […] With bryostatin, which activates PKC by binding to the diacylglycerol-binding site, the inhibition was biphasic, with concentrations of 20 nM or higher producing no net effect. This may be explained by the ability of this class of PKC activators to downregulate PKC when used at high concentrations.

[3] = target: T2, PKCδ (Homo sapiens, UniProt Q05655); experiment: PKC isozyme specificity: PKCδ; format: biochemical; conditions: about 1-100 μM; data not shown
T2 construct: purchased Calbiochem
T2 sequence (Q05655 whole entry): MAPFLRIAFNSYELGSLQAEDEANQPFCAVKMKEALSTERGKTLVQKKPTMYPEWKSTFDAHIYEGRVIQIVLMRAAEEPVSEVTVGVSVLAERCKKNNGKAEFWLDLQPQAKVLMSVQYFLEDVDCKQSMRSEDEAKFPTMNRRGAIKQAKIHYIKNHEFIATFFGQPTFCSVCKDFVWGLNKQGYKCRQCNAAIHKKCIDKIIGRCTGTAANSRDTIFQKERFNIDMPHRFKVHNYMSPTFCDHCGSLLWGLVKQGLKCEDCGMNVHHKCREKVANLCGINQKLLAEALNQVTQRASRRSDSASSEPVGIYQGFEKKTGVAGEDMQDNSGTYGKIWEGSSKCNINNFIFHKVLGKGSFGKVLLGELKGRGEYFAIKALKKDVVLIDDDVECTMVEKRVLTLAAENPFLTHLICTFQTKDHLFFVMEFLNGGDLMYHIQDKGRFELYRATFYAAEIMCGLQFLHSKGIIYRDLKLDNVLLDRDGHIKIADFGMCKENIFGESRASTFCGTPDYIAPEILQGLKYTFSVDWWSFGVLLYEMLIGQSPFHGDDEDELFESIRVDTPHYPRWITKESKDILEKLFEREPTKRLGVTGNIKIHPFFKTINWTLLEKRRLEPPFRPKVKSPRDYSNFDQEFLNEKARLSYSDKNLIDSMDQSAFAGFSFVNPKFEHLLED
Method: as §1, §2

[4] = target: T3, PKCε (Homo sapiens, UniProt Q02156); conditions: Kanno et al.; cited from earlier work
T3 construct: purchased Calbiochem (San Diego, Calif.)
T3 sequence (Q02156 1-737): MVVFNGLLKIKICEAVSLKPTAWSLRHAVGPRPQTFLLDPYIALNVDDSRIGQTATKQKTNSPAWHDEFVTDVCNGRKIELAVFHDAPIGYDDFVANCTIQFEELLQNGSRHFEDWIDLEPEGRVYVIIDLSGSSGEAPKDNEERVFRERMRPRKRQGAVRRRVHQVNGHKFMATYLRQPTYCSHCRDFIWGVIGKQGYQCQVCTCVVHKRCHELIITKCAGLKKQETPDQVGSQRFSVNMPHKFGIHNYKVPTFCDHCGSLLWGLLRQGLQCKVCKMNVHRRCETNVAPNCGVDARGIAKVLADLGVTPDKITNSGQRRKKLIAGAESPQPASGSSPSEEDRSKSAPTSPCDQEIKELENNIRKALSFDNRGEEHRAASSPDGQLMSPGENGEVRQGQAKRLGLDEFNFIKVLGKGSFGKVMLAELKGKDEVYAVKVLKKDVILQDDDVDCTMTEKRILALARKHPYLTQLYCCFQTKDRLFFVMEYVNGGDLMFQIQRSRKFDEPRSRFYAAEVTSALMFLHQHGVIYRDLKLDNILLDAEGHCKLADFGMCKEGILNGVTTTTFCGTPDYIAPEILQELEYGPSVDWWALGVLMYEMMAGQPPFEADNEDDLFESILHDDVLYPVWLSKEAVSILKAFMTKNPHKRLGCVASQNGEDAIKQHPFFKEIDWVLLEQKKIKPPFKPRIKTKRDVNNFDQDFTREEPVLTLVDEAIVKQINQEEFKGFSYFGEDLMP

[5] = tested on: TACE; experiment: TACE assay in cell homogenates of neuronal cells; format: cell-based; conditions: human SH-SY5Y, N2a mouse neuroblastoma cells, primary neurons from rat hippocampus
Method: TACE Assay. TACE was measured by incubating 5 μl cell homogenate, 3 μl buffer (50 mM Tris-HCl 7.4 plus 25 mM NaCl plus 4% glycerol), and 1 μl of 100 μM TACE substrate IV (Aβz-LAQAVRSSSR-DPa) (Calbiochem) for 20 min at 37° in 1.5-ml polypropylene centrifuge tubes (Jin et al., Anal. Biochem. 2002; 302: 269-75). The reaction was stopped by cooling to 4° C. The samples were diluted to 1 ml and the fluorescence was rapidly measured (ex=320 nm, em=420 nm) in a Spex Fluorolog 2 spectrofluorometer.
Buxbaum et al., J. Biol. Chem. 1998; 273: 27765-67; Etcheberrigaray et al., Proc. Natl. Acad. Sci. USA. 2006: 103:8215-20. However, many of these earlier studies were carried out in fibroblasts and other non-neuronal cell types, which appear to respond differently to PKC activators than neurons.

CCCCCC1CC1CC1CC1CCCCCCCC(=O)O (stereo not drawn) [BR-101, 8-[2-(2-pentyl-cyclopropylmethyl)-cyclopropyl]-octanoic acid]
effect on PKCγ at higher concentrations [1]: activated
levels of both intracellular and secreted Aß ([2]; 24 h incubation, various concentrations): markedly reduced
concentration dependence of Aß inhibition ([2]; concentrations up to 10 to 100 μM, no evidence of downregulation at higher concentrations): monotonically increasing inhibition
effect on PKCδ at higher concentrations [3]: partially inhibited
potency for PKCε over other PKC isozymes [4]: greater than 7 fold
change in TACE activity [5]: only produced small increases

From patent US20230235378A1, “LZHEIMER'S DISEASE-SPECIFIC ALTERATIONS OF PROTEIN KINASE C EPSILON (PKC-EPSILON PROTEIN LEVELS” (WEST VIRGINIA UNIVERSITY BOARD OF GOVERNORS ON BEHALF OF …, priority 2010, published 2023)
